Each structure is given as a SMILES string. Entries after “also recorded” stand apart in the source; their conditions may differ.

As usually defined, the pKa is the pH at which an ionisable group is half protonated.

Data set [1] is described as follows: Rheometry: elastic modulus (G′) of sputum from cystic fibrosis (CF) patients. Also on record: species or system human. The note with it: for effect on G′ of CF sputum: sputum pooled from three CF patients (FIG. 3); for mucolytic effect: change in elastic modulus G′ (%-change from baseline): twelve-minute test period (FIG. 5A); for mucolytic effect on elastic modulus G′ over 12-minute test period: CF sputum n=5 donors (FIG. 7A); for mucolysis: onset and endpoint (12-minutes), change in G′: single sputum sample from a CF patient (FIG. 6). Here is the method: (§1) A rheometer was employed to determine the effect of the compounds disclosed herein on the elastic modulus (G′) of sputum sample from human subjects. The terms “elastic modulus,” “G′,” and the like refer to the elastic modulus as known in the art. Inhalation of 3% saline facilitates mucus expectoration (“induced sputum”) in human subjects, including in healthy subjects without lung disease. A typical sputum induction yields 3-5 mL of sputum, and induced sputum samples can be pooled from several donors in order to provide as much as 20 mL with for any given set of experiments. The rheometer can use 1 mL per assay. Rheological measurements can be made, e.g., with a AR2000 cone-and-plate rheometer (TA Instruments), as known in the art.
(§2) Patients with cystic fibrosis (CF) are able to spontaneously expectorate sputum samples. […] We typically add the test compound to induced sputum at a 10% v/v, and we calculate effect of the test compound by measuring G′ every 2 minutes for periods up to 20 minutes. Because oxidation can cause baseline drift, we keep the experiment under nitrogen to improve signal to noise ratios. We custom modified a cone and plate rheometer to permit this kind of control in our rheometry experiments. Another protocol element that we use to optimize signal to noise is the addition of protease inhibitors to CF sputum to inhibit protease digestion of mucin. […]
A series of time courses of the change in baseline G′ (%-change from baseline) of sputum samples at 10 mM concentration of MDG and Cmpds 1-5 is depicted in FIG. 6. Each datum in the figure was obtained from a single sputum sample from a patient with cystic fibrosis. […] Moreover, the length of the chain leading to the thiol is important; compare Cmpd 2 (C5 alkylene) vs. Cmpd 3 (C2 alkylene).
A time course of the change in baseline G′ (%-change from baseline) at 10 mM concentration of thiosaccharide is depicted in FIG. 7A. The drugs compared include an unmodified sugar (MDG), Glutathione (GSH, a natural endogenous reducing agent), N-acetyl cysteine (NAC), Cmpd 1 and Cmpd 2.

Data set [2] can be described thus: Rheometry: disulfide dimer study, elastic modulus (G′) of sputum (source not stated). Set-up: species or system human. Particulars: 10 mM (FIG. 2). Here is the method: as §1, §2
The nature of data set [3]: Oxidation-reduction potential (ORP) measurement. It counts as physicochemical. The note with it: solutions (1 mM); for Reducing capacity (ORP): ORP probe; for reducing properties (in words): compared to parent sugar (PS) control. Here is the method: An INLAB® Redox Micro ORP probe (Mettler Toledo) was employed, which utilizes a small platinum ring indicator electrode and a 3M KCL reference electrolyte. ORP values were determined for thiosaccharides, NAC and glutathione.

The nature of data set [4]: Rheometry: elastic modulus (G′) of pooled induced sputum from healthy subjects. The note with it: for effect on elastic modulus G′ (in words): 1 mM (FIG. 1). Also on record: species or system human. The procedure:
A rheometer was employed to determine the effect of the compounds disclosed herein on the elastic modulus (G′) of sputum sample from human subjects. The terms “elastic modulus,” “G′,” and the like refer to the elastic modulus as known in the art. Inhalation of 3% saline facilitates mucus expectoration (“induced sputum”) in human subjects, including in healthy subjects without lung disease. A typical sputum induction yields 3-5 mL of sputum, and induced sputum samples can be pooled from several donors in order to provide as much as 20 mL with for any given set of experiments. The rheometer can use 1 mL per assay. Rheological measurements can be made, e.g., with a AR2000 cone-and-plate rheometer (TA Instruments), as known in the art. Patients with cystic fibrosis (CF) are able to spontaneously expectorate sputum samples. […] We typically add the test compound to induced sputum at a 10% v/v, and we calculate effect of the test compound by measuring G′ every 2 minutes for periods up to 20 minutes. Because oxidation can cause baseline drift, we keep the experiment under nitrogen to improve signal to noise ratios. We custom modified a cone and plate rheometer to permit this kind of control in our rheometry experiments. Another protocol element that we use to optimize signal to noise is the addition of protease inhibitors to CF sputum to inhibit protease digestion of mucin. As depicted in FIG. 1, the elastic modulus (G′) of pooled induced sputum from five healthy subjects was determined as a function of time in the presence of 1 mM PBS (phosphate buffered saline), NAC (N-acetylcysteine), Cmpd 1, Cmpd 29, Glc-NAc, and Gal-NAc.

The conditions of data set [5]: cited from earlier work.
Setting [6] is: 61 mM, CF sputum n=5 donors, 12 minutes (FIG. 5C).

For the compound `CO[C@H]1OC(CS)[C@H](O)C(O)C1O` (stereo partly drawn) [Cmpd 1, methyl 6-deoxy-6-thio-α-D-galactopyranoside], the “effect on G′ of CF sputum” value in data set [1] (10 mM) was “larger than the effect in healthy induced sputum”. Further, the onset of action result in data set [1] (61 mM, CF sputum) is listed as “significantly faster onset of action relative to either parent sugar MDG or NAC”. In data set [1] (61 mM, CF sputum n=5 donors, 2 minutes (FIG. 5B)), the “average mucolytic effect at two minutes” value is “significantly larger than observed for NAC; also recorded: much larger mucolytic effects than NAC”. The “mucolytic effect at 12 minutes” value in data set [1] (setting [6]) is “similar”. Also, in data set [1] (61 mM, CF sputum n=5 donors), the “mucolytic effect: change in elastic modulus G′ (%-change from baseline)” value (“mucolytic effect … (%-change from baseline)” for short) is recorded as “decrease the elastic modulus (G′)”. Moreover, the “decrease in elastic modulus G′ of individual sputum samples from CF patients” value in data set [1] (individual samples from three CF patients (FIGS. 4A-4D)) was “ca. 50%”. Further, in data set [2], the “efficacy in reducing elastic modulus G′ (comparison)” value is recorded as “more effective in reducing elastic modulus G′ than either the disulfide dimer of Cmpd 1 or Cmpd 6”. Besides, in data set [3], the “Reducing capacity (ORP)” value turned out to be 99 mV and the “reducing properties (in words)” value is on record as “relatively strong reducing capabilities”. In addition, in data set [4] (1 mM, during the time course of the experiment (FIG. 1)), the “decrease in elastic modulus G′” value was ~30%.

For the compound `CC(=O)N[C@@H](CS)C(=O)O` [NAC, N-Acetylcysteine, reference compound], the “mucolytic effect on elastic modulus G′ over 12-minute test period” value (“mucolytic effect … over 12-minute test period” below) in data set [1] (10 mM) is on record as “no better than control solutions”. Moreover, the “mucolytic effect at 12 minutes” value in data set [1] (setting [6]) is “similar”. Further, the “mucolytic effect … (%-change from baseline)” value in data set [1] (61 mM, CF sputum n=5 donors) is given as “decrease the elastic modulus (G′)”. In data set [3], the “Reducing capacity (ORP)” value was 121 mV and the “reducing properties (in words)” value is “did not have strong reducing properties”. In addition, in data set [4], the “effect on elastic modulus G′ (in words)” value was “not effective in decreasing G′”. Moreover, the pKa in data set [5] is given as 2.2.

`N[C@@H](CCC(=O)N[C@@H](CS)C(=O)NCC(=O)O)C(=O)O` [GSH, Glutathione]: the “mucolytic effect … over 12-minute test period” value in data set [1] (10 mM) was “ineffective as mucolytics”. In data set [3], the “Reducing capacity (ORP)” value worked out at 140 mV and the “reducing properties (in words)” value was “did not have strong reducing properties”.

For the compound `OCC1O[C@@H](OCCCCCS)C(O)[C@@H](O)[C@H]1O` (stereo partly drawn) [Cmpd 2, 5-Thiolpentyl β-D-galactopyranoside], in data set [1] (10 mM), the “mucolytic effect … over 12-minute test period” value is “largest effect”; the “mucolysis: onset and endpoint (12-minutes), change in G′” value (“mucolysis … change in G′” below) was “affords a better mucolytic than mannose (Cmpd 5) or glucose (Cmpd 4)”. Moreover, the “mucolytic effect at two minutes” value in data set [1] (10 mM, CF sputum n=5 donors, 2 minutes (FIG. 7B)) was “much larger mucolytic effects than NAC”. Besides, the “mucolytic effect at 12 minutes” value in data set [1] (10 mM, CF sputum n=5 donors, 12 minutes (FIG. 7C)) is recorded as “significantly greater than observed for NAC; also recorded: significantly greater than for Cmpd 1; also recorded: much larger mucolytic effects than NAC; also recorded: significantly greater than that of Cmpd 1”. Moreover, in data set [3], the “Reducing capacity (ORP)” value was −15 mV and the “reducing properties (in words)” value was “very strong reducing activity”.

Take `CO[C@H]1O[C@H](CO)[C@H](O)[C@H](O)[C@H]1O` [MDG, methyl α-D-galactopyranoside, reference compound]: in data set [1] (10 mM), the “mucolytic effect … over 12-minute test period” value is “ineffective as mucolytics” and the “effect on G′ of CF sputum” value is listed as “ineffective in decreasing G′ of CF sputum”. Moreover, the “mucolytic effect … (%-change from baseline)” value in data set [1] (61 mM, CF sputum n=5 donors) is “no mucolytic effect”. Further, the “Reducing capacity (ORP)” value in data set [3] is 176 mV.

Regarding `CO[C@H]1OC(CO)[C@H](S)[C@H](O)C1O` (stereo partly drawn) [Cmpd 29], the “effect on elastic modulus G′ (in words)” value in data set [4] is “approximately half of the decrease in G′ observed with Cmpd 1”.

On to `OCC1O[C@@H](OCCCCCS)C(O)[C@@H](O)[C@@H]1O` (stereo partly drawn) [Cmpd 5], for which the “mucolysis … change in G′” value in data set [1] (10 mM) is recorded as “a galactose moiety (i.e., Cmpd 2) affords a better mucolytic than mannose (Cmpd 5) or glucose (Cmpd 4)”.

Take `OCC1O[C@H](OCCCCCS)C(O)[C@@H](O)[C@@H]1O` (stereo partly drawn) [Cmpd 4]: the “mucolysis … change in G′” value in data set [1] (10 mM) was “a galactose moiety (i.e., Cmpd 2) affords a better mucolytic than mannose (Cmpd 5) or glucose (Cmpd 4)”.

Values taken from patent publication US11021506B2, “Thiosaccharide mucolytic agents” (The Regents of the University of California, priority 2013, dated 2021).
